PubChem BioAssay (NCI)
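Results reflect a 48-hour exposure of cells in 96-well plates to compound at five concentrations. GI50 = concentration required for 50% inhibition of growth. TGI: concentration producing complete growth inhibition.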

Legend:
Experiment in all cases: DTP human tumour cell line panel, 48 h
SK-MEL-2 melanoma = tested on: SK-MEL-2 melanoma
MALME-3M melanoma = tested on: MALME-3M melanoma
RXF 393 renal = tested on: RXF 393 renal
SK-MEL-5 melanoma = tested on: SK-MEL-5 melanoma
U251 CNS = tested on: U251 CNS
SNB-75 CNS = tested on: SNB-75 CNS
A498 renal = tested on: A498 renal
BT-549 breast = tested on: BT-549 breast

## Oc1cccc2ccc(SSc3ccc4cccc(O)c4n3)nc12
SK-MEL-2 melanoma
  TGI: 39.9 µM
MALME-3M melanoma
  TGI: 30 µM
RXF 393 renal
  TGI: 30.8 µM
SK-MEL-5 melanoma
  TGI: > 100 µM
U251 CNS
  TGI: 30 µM
SNB-75 CNS
  TGI: 34.9 µM
A498 renal
  TGI: 77.4 µM
BT-549 breast
  TGI: 37.6 µM

## CC1(C)N=C(N)N=C(N)N1c1cccc(CCCCc2ccc(Cl)c(S(=O)(=O)F)c2)c1
SK-MEL-2 melanoma
  GI50: 8.53 µM
  TGI: 25.4 µM
MALME-3M melanoma
  GI50: 9.71 µM
  TGI: 28.3 µM
RXF 393 renal
  GI50: 0.459 µM
  TGI: 16.1 µM
SK-MEL-5 melanoma
  GI50: 0.612 µM
  TGI: 12.9 µM
U251 CNS
  GI50: 0.655 µM
  TGI: 21.3 µM
SNB-75 CNS
  GI50: 10.3 µM
  TGI: 22.4 µM
A498 renal
  GI50: 16.4 µM
  TGI: 52.9 µM
BT-549 breast
  GI50: 1.35 µM
  TGI: 17.7 µM

## O=C(O)c1nn(-c2ccc(Cl)cc2)c2c1C(=O)c1ccccc1C2=O
SK-MEL-2 melanoma
  TGI: > 100 µM
MALME-3M melanoma
  TGI: 28.1 µM
RXF 393 renal
  TGI: > 100 µM
SK-MEL-5 melanoma
  TGI: 53.6 µM
U251 CNS
  TGI: > 100 µM
SNB-75 CNS
  TGI: 62.3 µM
A498 renal
  TGI: > 100 µM
BT-549 breast
  TGI: > 100 µM

## Oc1ccc(Br)cc1C=NC1CCCCC1
SK-MEL-2 melanoma
  TGI: 74.2 µM
MALME-3M melanoma
  TGI: > 100 µM
RXF 393 renal
  TGI: > 100 µM
SK-MEL-5 melanoma
  TGI: 43.8 µM
U251 CNS
  TGI: > 100 µM
A498 renal
  TGI: > 100 µM
BT-549 breast
  TGI: > 100 µM

## O=c1cccccc1O
SK-MEL-2 melanoma
  TGI: > 100 µM
MALME-3M melanoma
  TGI: > 100 µM
RXF 393 renal
  TGI: > 100 µM
SK-MEL-5 melanoma
  TGI: > 100 µM
SNB-75 CNS
  TGI: > 100 µM
BT-549 breast
  TGI: > 100 µM

## Cc1cccc2c(=O)c3c(sc12)c(NCCCN)nc1ccccc13
SK-MEL-2 melanoma
  GI50: 1.85 µM
  TGI: 3.65 µM
MALME-3M melanoma
  GI50: 1.61 µM
  TGI: 3.09 µM
RXF 393 renal
  GI50: 1.48 µM
  TGI: 2.87 µM
SK-MEL-5 melanoma
  GI50: 1.74 µM
  TGI: 3.18 µM
U251 CNS
  GI50: 1.51 µM
  TGI: 3.01 µM
SNB-75 CNS
  GI50: 1.02 µM
  TGI: 2.31 µM
A498 renal
  GI50: 1.88 µM
  TGI: 5.64 µM
BT-549 breast
  GI50: 2.6 µM
  TGI: 12.6 µM

## COc1cc(/C=C2\C[C@H]3[C@@H]4CC=C5C[C@@H](O)CC[C@]5(C)[C@H]4CC[C@]3(C)[C@H]2O)ccc1OCCN1CCCCC1
SK-MEL-2 melanoma
  GI50: 5 µM
  TGI: > 50 µM
RXF 393 renal
  GI50: 1.04 µM
  TGI: 2.31 µM
SK-MEL-5 melanoma
  GI50: 0.576 µM
  TGI: 1.19 µM
U251 CNS
  GI50: 1.13 µM
  TGI: 3.32 µM
A498 renal
  GI50: 14.3 µM
  TGI: 31.3 µM
BT-549 breast
  GI50: 1.18 µM
  TGI: 2.49 µM

## NC(CCl)=NCC12CC3CC(CC(C3)C1)C2
SK-MEL-2 melanoma
  GI50: 2.06 µM
  TGI: 7.46 µM
MALME-3M melanoma
  GI50: 6.32 µM
  TGI: 27.3 µM
RXF 393 renal
  GI50: 0.44 µM
  TGI: 5.4 µM
SK-MEL-5 melanoma
  GI50: 0.973 µM
  TGI: 3.79 µM
U251 CNS
  GI50: 1.38 µM
  TGI: 12.1 µM
SNB-75 CNS
  GI50: 2.21 µM
  TGI: 15.4 µM
A498 renal
  GI50: 1.37 µM
  TGI: 13.4 µM
BT-549 breast
  GI50: 2.43 µM
  TGI: 14.2 µM

## OCC#Cc1ccccc1C#Cc1ccc(C#Cc2ccccc2C#CCO)cc1
SK-MEL-2 melanoma
  GI50: 36.2 µM
  TGI: 79.9 µM
MALME-3M melanoma
  GI50: 98.9 µM
  TGI: > 100 µM
SK-MEL-5 melanoma
  GI50: 23.7 µM
  TGI: 59.3 µM
U251 CNS
  GI50: 34 µM
  TGI: > 100 µM
SNB-75 CNS
  GI50: 85.1 µM
  TGI: > 100 µM
A498 renal
  GI50: 28.9 µM
  TGI: 95.7 µM
BT-549 breast
  GI50: 0.68 µM
  TGI: 32.2 µM
